Test results reported in patent US7745656B2, “Stable no-delivering compounds” (Duke University, priority 1998, dated 2010).

Test system: E. coli cells (pTC 190)
Assay: Bacteriostatic test: nitrosylated compound solution sprayed onto E. coli culture plates
Format: cell-based
Experimental: Nitrosated 3-mercapto-1,2-propanediol was prepared with TBN bed in the Example 1. The nitrosylated compound was dissolved in 10 mL of deionized water (0.16 M) that had been passed through a CHELEX 100 column and bubbled with argon for 30 minutes. The resulting solution was red.
E. coli cells (pTC 190) were plated onto the culture plates and grown overnight at 40° C. The E. coli cells contained a plasmid encoding for ampicillin resistance. The solution was then sprayed onto a culture plate (LB/Amp/Glucose).
This plate was then sprayed with the nitrosylated compound solution at the 24th hour.

## O=NSCC(O)CO (stereo not drawn) [nitrosylated 3-mercapto-1,2-propanediol]
0.16 M in deionized water, compound prepared with TBN, LB/Amp/Glucose plate, read after 24 hours
  Bacterial growth on culture plate sprayed with the compound solution: growth of a few colonies, all localized on one side of the plate
0.16 M solution sprayed on a continuous lawn, read after another 24 hours
  Bacterial growth on plate with an established E. coli lawn, sprayed at the 24th hour: lawn of colonies that was approximately as dense as prior to application
Conclusion of Example 3
  Overall antibacterial result: bacteriostatic
